These are literature values, as cited in patent US10022309B2, “Composition, comprising hydrofluoric acid, for inhibiting dental erosion” ([…], priority 2004, dated 2018).

The conditions of series [1]: 24 h treatment (1.2% NaF or Duraphat varnish); then cola-drink pH 2.6 for 4 min.
The conditions of series [2]: pre-treatment with 1% neutral NaF or 4% TiF4; 50 mM citric acid with calcium and phosphate, pH 3, 30 min; without treatment 4.5 um.
For series [3] the following is noted: aqueous solution.

Turning to `[F-].[Na+]` [NaF, sodium fluoride], the “hardness of enamel compared with untreated control” value in series [1] is “improved”. Besides, in series [2], the mean lesion depth is listed as 3.5 um.
Take `[F][Ti]([F])([F])[F]` [TiF4, titanium tetrafluoride]: in series [2], the mean lesion depth is listed as 2.7 um.
As for `F` [hydrofluoric acid], in series [3], the pKa is given as 3.45.
